Measured values as given in the supplement of paper PMC9386025.

How the values were obtained:
Experiment in all cases: drug sensitivity score (DSS) (DSS (dimensionless)); higher = more sensitive (stronger drug response)
OVSAHO = test system: OVSAHO
In short: (§1)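 Ovarian cancer cell lines, with shRNA induced by 100 ng/ml doxycycline for at least three days, and patient-derived cultures were seeded at 1 000 – 1 500 cells per well in 384-well plates holding drugs pre-plated in five concentrations over a 10,000-fold range. After three days at 37 °C and 5.0 % CO2, viability was read as CellTiter-Glo luminescence on a PHERAstar FS. Each drug's dose-response curve was summarised as a drug sensitivity score calculated as previously described.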

Kuramochi = test system: Kuramochi
In short: as §1

JHOS2 = test system: JHOS2
In short: as §1

FIMM-PDC1 = patient-derived ovarian cancer cells; conditions: genetic perturbation: none (patient-derived cell culture)
In short: as §1

FIMM-PDC4 = patient-derived ovarian cancer cells; conditions: genetic perturbation: none (patient-derived cell culture)
In short: as §1

FIMM-PDC6 = patient-derived ovarian cancer cells; conditions: genetic perturbation: none (patient-derived cell culture)
In short: as §1

FIMM-PDC3 = patient-derived ovarian cancer cells; conditions: genetic perturbation: none (patient-derived cell culture)
In short: as §1

FIMM-PDC5 = patient-derived ovarian cancer cells; conditions: genetic perturbation: none (patient-derived cell culture)
In short: as §1

FIMM-PDC7 = patient-derived ovarian cancer cells; conditions: genetic perturbation: none (patient-derived cell culture)
In short: as §1

[1] = genetic perturbation: DOX-induced PTK7 shRNA knockdown
[2] = genetic perturbation: DOX-induced control shRNA

| Structure (SMILES) | drug sensitivity score (OVSAHO; [1]) | drug sensitivity score (OVSAHO; [2]) | drug sensitivity score (Kuramochi; [1]) | drug sensitivity score (Kuramochi; [2]) | drug sensitivity score (JHOS2; [1]) | drug sensitivity score (JHOS2; [2]) | drug sensitivity score (FIMM-PDC1) | drug sensitivity score (FIMM-PDC4) | drug sensitivity score (FIMM-PDC6) | drug sensitivity score (FIMM-PDC3) | drug sensitivity score (FIMM-PDC5) | drug sensitivity score (FIMM-PDC7) |
| --- | --- | --- | --- | --- | --- | --- | --- | --- | --- | --- | --- | --- |
| Nc1ccccc1NC(=O)c1ccc(CNc2nccc(-c3cccnc3)n2)cc1 [Mocetinostat] | 10 | 3.8 | 9.95 | 4.1 | 8 | 3.4 | 6.35 | 7.1 | 8.7 | 9.7 | 12.3 | 7.5 |
| CCNC(=O)C[C@@H]1N=C(c2ccc(Cl)cc2)c2cc(OC)ccc2-n2c(C)nnc21 [Molibresib] | 6 | 9.4 | 8.65 | 4 | 6.8 | 5.3 | 1.7 | 3.3 | 4.2 | 3.5 | 7.6 | 6.6 |
| N#CCNC(=O)c1ccc(-c2ccnc(Nc3ccc(N4CCOCC4)cc3)n2)cc1 [Momelotinib] | 3.6 | 1.7 | 0.75 | 2.1 | 8.3 | 6.8 | 0.1 | 4.1 | 4.2 | 1.9 | 7.2 | 8 |
| Cc1cc(OCc2nnc(SC3CCCC3)n2-c2cccnc2)ccc1-c1ccc(S(C)(=O)=O)cc1 [NMS-873] | 5.1 | 7.5 | 8.15 | 6.2 | 7.7 | 5.9 | 7.55 | 8.3 | 9.1 | 9.4 | 5.5 | 5 |
| COc1ccc(-c2ccc3ncc4c(c3c2)n(-c2ccc(N3CCNCC3)c(C(F)(F)F)c2)c(=O)n4C)cn1 [NVP-BGT226] | 17.8 | 16.2 | 10.1 | 13.4 | 11 | 15 | 12.2 | 19.7 | 21.5 | 12.6 | 25.6 | 22.4 |
| COc1cc2c(cc1OC(C)C)[C@H](c1ccc(Cl)cc1)N(c1ccc(N(C)C[C@H]3CC[C@H](N4CCN(C)C(=O)C4)CC3)cc1)C(=O)C2 [NVP-CGM097] | 5.2 | 8.5 | 5.75 | 8 | 5.9 | 6.1 | 5.45 | 9.2 | 10.9 | 7.4 | 15.4 | 10 |
| CN[C@@H](C)C(=O)N[C@H](C(=O)N1CCC[C@H]1c1nc(C(=O)c2ccc(F)cc2)cs1)C1CCCCC1 [NVP-LCL161] | 6 | 4.1 | 3.65 | 4.2 | 26 | 20.4 | 14.1 | 1.7 | 6.9 | 15.7 | 2.7 | 5.1 |
| Cn1c(Nc2ccc(C(F)(F)F)cc2)nc2cc(Oc3ccnc(-c4ncc(C(F)(F)F)[nH]4)c3)ccc21 [NVP-RAF265] | 1.5 | 0.3 | 0.1 | < 0 | < 0 | 3.8 | 1.4 | 2.9 | 1.3 | 6.7 | 14.6 | 2.8 |
| CC(=O)c1cc2c(o1)C(=O)c1ccccc1C2=O [Napabucasin] | 18.9 | 16.1 | 16.7 | 17.3 | 22 | 19.2 | 10.8 | 15.3 | 14.4 | 21.8 | 13.4 | 17.2 |
| CC1(C)CCC(c2ccc(Cl)cc2)=C(CN2CCN(c3ccc(C(=O)NS(=O)(=O)c4ccc(N[C@H](CCN5CCOCC5)CSc5ccccc5)c(S(=O)(=O)C(F)(F)F)c4)cc3)CC2)C1 [Navitoclax] | 10.1 | < 0 | 1.8 | 4.3 | 1.1 | < 0 | 4.85 | 6.2 | 21.9 | 5.7 | 19.5 | 16.4 |
| CCOc1cc2ncc(C#N)c(Nc3ccc(OCc4ccccn4)c(Cl)c3)c2cc1NC(=O)/C=C/CN(C)C [Neratinib] | 0.8 | 0.4 | 0.45 | < 0 | 0.6 | 5.2 | 1.15 | 11.9 | 14.1 | 9.5 | 16.1 | 8.3 |
| COC(=O)c1ccc2c(c1)NC(=O)/C2=C(\Nc1ccc(N(C)C(=O)CN2CCN(C)CC2)cc1)c1ccccc1 [Nintedanib] | 9.4 | 1.5 | 7.2 | 2.7 | 4 | 4.4 | 0.25 | 8.5 | 1.9 | 2.5 | 9.9 | 1.2 |
| CC(=O)c1cnc2ccc(-c3cc(Cl)c(O)c(Cl)c3)nc2c1N[C@H]1CC[C@H](CN(C)C)CC1 [OTS167] | 8 | 10.6 | 10.1 | 5.8 | 15.7 | 18.8 | 11.3 | 12.3 | 13.9 | 12.4 | 14.7 | 14.6 |
| O=C(c1cc(Cc2n[nH]c(=O)c3ccccc23)ccc1F)N1CCN(C(=O)C2CC2)CC1 [Olaparib] | 3.5 | 2.5 | 3.35 | 2.6 | 6.6 | 3.2 | 3.45 | 3.8 | 9.2 | 1.5 | 6.1 | 6.1 |
| COC(=O)C[C@](O)(CCCC(C)(C)O)C(=O)O[C@@H]1C(OC)=C[C@]23CCCN2CCc2cc4c(cc2[C@H]13)OCO4 [Omacetaxine] | 21.7 | 21.7 | 23.8 | 14.3 | 20.8 | 21.6 | 23.7 | 22.9 | 25.3 | 27.2 | 21.3 | 23.8 |
| CC1(C)CC[C@]2(NC(=O)C(C)(F)F)CC[C@]3(C)[C@H](C(=O)C=C4[C@@]5(C)C=C(C#N)C(=O)C(C)(C)[C@@H]5CC[C@]43C)[C@@H]2C1 [Omaveloxolone] | 19.8 | 11.9 | 12.2 | 14.1 | 10.1 | 16.2 | 13.5 | 9.9 | 14.3 | 19.3 | 11.3 | 15.8 |
| COc1ncc(-c2ccc3nccc(-c4ccnnc4)c3c2)cc1NS(=O)(=O)c1ccc(F)cc1F [Omipalisib] | 17.7 | 17.7 | 17.8 | 10.8 | 9.3 | 10.5 | 11.7 | 19.8 | 16.5 | 17.7 | 21.9 | 20 |
| CC(C)c1cc(C(=O)N2Cc3ccc(CN4CCN(C)CC4)cc3C2)c(O)cc1O [Onalespib] | < 0 | 5.4 | 7.1 | < 0 | 10.3 | 11.4 | 10.4 | 15.1 | 12.8 | 9.4 | 12.5 | 10.6 |
| COC[C@H](NC(=O)c1cnc(C)s1)C(=O)N[C@@H](COC)C(=O)N[C@@H](Cc1ccccc1)C(=O)[C@@]1(C)CO1 [Oprozomib] | 17.3 | 10.2 | 12.6 | 18.3 | 23.6 | 17 | 19.5 | 15.9 | 24.9 | 23.6 | 11.6 | 19 |
| C=CC(=O)Nc1cc(Nc2nccc(-c3cn(C)c4ccccc34)n2)c(OC)cc1N(C)CCN(C)C [Osimertinib] | 5.9 | 3.3 | 4.8 | 4.3 | 4.1 | 4.1 | 4 | 11 | 12.5 | 9.5 | 14.4 | 9.6 |
| O=C(O)C(=O)O.[NH-][C@@H]1CCCC[C@H]1[NH-].[Pt+2] [Oxaliplatin] | 9.9 | 5.9 | 8.65 | 5.8 | 8.2 | 6.2 | 5.4 | 5 | 7.8 | 17.3 | 11.2 | 11.5 |
| COc1ccccc1S(=O)(=O)Nc1ccc2c(c1)CN(C)C(=O)N2 [PFI-1] | 4.4 | 8.4 | 7.65 | 5 | 2.1 | 3.4 | 1.2 | 0.9 | 1.3 | 1.6 | 4.9 | 1.3 |
| CN1CCN(c2cc(C(=O)Nc3ccc4c(c3)-c3c(c(C(N)=O)nn3-c3ccc(F)cc3)CC4)c(Cl)cn2)CC1 [PHA 408] | 7.3 | 2.8 | 2.75 | 2.3 | 8.3 | < 0 | < 0 | 2.7 | 4.8 | 4.7 | 3.8 | 2.8 |
| COc1cc(Br)c(Nc2nc(-c3c(C)nc4ncccn34)cs2)c(Br)c1 [PTC-209] | 1.5 | 2.3 | 3 | 1.5 | 3.7 | 9.7 | 6.1 | 2.2 | 4.3 | 10 | 4.6 | 6.3 |
| CC(=O)O[C@H]1C(=O)[C@@]2(C)[C@H]([C@H](OC(=O)c3ccccc3)[C@]3(O)C[C@H](OC(=O)[C@H](O)[C@@H](NC(=O)c4ccccc4)c4ccccc4)C(C)=C1C3(C)C)[C@]1(OC(C)=O)CO[C@@H]1C[C@@H]2O [Paclitaxel] | 11.1 | 15.6 | 18.1 | 3.1 | 17.3 | 11.7 | 15.9 | 18.7 | 10.5 | 18.4 | 20.8 | 7 |
| C1=N/C2=N/c3ccc(OCCN4CCCC4)c(c3)COC/C=C/COCc3cccc(c3)C(=C1)N2 [Pacritinib] | 10.1 | 9.6 | 7.05 | 9.3 | 9.3 | 10.9 | 6.7 | 7.6 | 7.5 | 7.7 | 10.6 | 5 |
